Tested on: NCI-H23 complex spheroids with HUVEC/MSC, viability
Assay: Anticancer human tumor NCI-H23 cell line growth inhibition [RAS];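 further: spheroids exposed to compound for 7 days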;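 on viability, T/C: 100% = DMSO vehicle control viability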
Details: for IC50: curve of first compound; for viability, T/C: stronger effect = lower value
Procedure, shortened: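 Tumour cells grown as complex spheroids with HUVEC endothelial cells and mesenchymal stem cells, treated with RAS pathway inhibitor combinations. Each agent spans half-log steps from near clinical Cmax, or 10 microM where Cmax is unknown.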

`CC1(C)CCC(Nc2ncc(C(F)(F)F)c(-c3c[nH]c4c(P(C)(C)=O)c(C#N)ccc34)n2)CN1` (configuration not stated) + CCn1c(-c2cc(N3CCN(C)CC3)cnc2C(C)OC)c2c3cc(ccc31)-c1csc(n1)CC(NC(=O)C1CC1C)C(=O)N1CCCC(N1)C(=O)OCC(C)(C)C2 was tested, and the IC50 (second compound 0.000949 µM) was under 0.949 nM, the IC50 (second compound 0.003 µM) was under 0.949 nM and the IC50 (second compound 0.00949 µM) was under 0.949 nM. It also gave an IC50 (second compound 0.03 µM) of under 0.949 nM, an IC50 (second compound 0.0949 µM) of under 0.949 nM and an IC50 (second compound 0.3 µM) of under 0.949 nM. The viability, T/C (second compound 0.000949 µM, first compound 0.000949 µM) was 33.9%, the viability, T/C (second compound 0.000949 µM, first compound 0.003 µM) was 29.4% and the viability, T/C (second compound 0.000949 µM, first compound 0.00949 µM) was 21.1%. The viability, T/C (second compound 0.000949 µM, first compound 0.03 µM) was 26.6%, the viability, T/C (second compound 0.000949 µM, first compound 0.0949 µM) was 21% and the viability, T/C (second compound 0.000949 µM, first compound 0.3 µM) was 14.5%. For the same compound, the viability, T/C (second compound 0.003 µM, first compound 0.000949 µM) was 26.6%, the viability, T/C (second compound 0.003 µM, first compound 0.003 µM) was 21.2% and the viability, T/C (second compound 0.003 µM, first compound 0.00949 µM) was 16.8%. The viability, T/C (second compound 0.003 µM, first compound 0.03 µM) was 18.4%, the viability, T/C (second compound 0.003 µM, first compound 0.0949 µM) was 16.7% and the viability, T/C (second compound 0.003 µM, first compound 0.3 µM) was 12.2%. The viability, T/C (second compound 0.00949 µM, first compound 0.000949 µM) was 21.4%, the viability, T/C (second compound 0.00949 µM, first compound 0.003 µM) was 16.8% and the viability, T/C (second compound 0.00949 µM, first compound 0.00949 µM) was 16.1%. The viability, T/C (second compound 0.00949 µM, first compound 0.03 µM) was 15.9%, the viability, T/C (second compound 0.00949 µM, first compound 0.0949 µM) was 12.8% and the viability, T/C (second compound 0.00949 µM, first compound 0.3 µM) was 11.8%. For the same compound, the viability, T/C (second compound 0.03 µM, first compound 0.000949 µM) was 17.6%, the viability, T/C (second compound 0.03 µM, first compound 0.003 µM) was 14.4% and the viability, T/C (second compound 0.03 µM, first compound 0.00949 µM) was 13.4%. For the same compound, the viability, T/C (second compound 0.03 µM, first compound 0.03 µM) was 12.8%, the viability, T/C (second compound 0.03 µM, first compound 0.0949 µM) was 10.5% and the viability, T/C (second compound 0.03 µM, first compound 0.3 µM) was 12.6%. It also gave a viability, T/C (second compound 0.0949 µM, first compound 0.000949 µM) of 15%, a viability, T/C (second compound 0.0949 µM, first compound 0.003 µM) of 13.5% and a viability, T/C (second compound 0.0949 µM, first compound 0.00949 µM) of 10.5%. For the same compound, the viability, T/C (second compound 0.0949 µM, first compound 0.03 µM) was 10.9%, the viability, T/C (second compound 0.0949 µM, first compound 0.0949 µM) was 9.11% and the viability, T/C (second compound 0.0949 µM, first compound 0.3 µM) was 10.1%. The viability, T/C (second compound 0.3 µM, first compound 0.000949 µM) was 13.1%, the viability, T/C (second compound 0.3 µM, first compound 0.003 µM) was 10.8% and the viability, T/C (second compound 0.3 µM, first compound 0.00949 µM) was 10.7%. It also gave a viability, T/C (second compound 0.3 µM, first compound 0.03 µM) of 9.9%, a viability, T/C (second compound 0.3 µM, first compound 0.0949 µM) of 9.8% and a viability, T/C (second compound 0.3 µM, first compound 0.3 µM) of 9.04%.

— PubChem BioAssay AID2060885 (Molecular Pharmacology Branch, DTP, NCI, 2025)
